According to PMC11412489, “Coumarin derivatives as new anti-biofilm agents against Staphylococcus aureus” (PLOS ONE, 2024):
Read-outs that look alike come from different tables or passages of the source.

Columns and labels:
Assay type in all cases: cell-based, Staphylococcus aureus
[1] = system: S. aureus; assay: Antibacterial activity (bacterial growth inhibition); conditions: at 100 μg/mL; for inhibition at 100 µg/mL: Staphylococcus aureus, read-out: Antibacterial Activity (% Inhibition ± SEM)
[2] = system: biofilm of S. aureus ATCC 6538; assay: 96-well plate crystal violet assay for biofilm inhibition; conditions: for inhibition at 3.125 µg/mL / inhibition at 6.25 µg/mL / inhibition at 12.5 µg/mL / inhibition at 25 µg/mL / inhibition at 50 µg/mL / inhibition at 100 µg/mL: Staphylococcus aureus, ATCC6538
Experimental: The quantitative determination of biofilm inhibition was carried out by the crystal violet assay on a sterile 96-well plate with slight modifications. The glycerol stock of S. aureus was revived overnight at 37°C at 80 rpm. The overnight culture was then diluted 100 folds in fresh BHI broth, supplemented with 0.25% glucose. The cell density was adjusted to 1×10^7 and 195μL of the cell suspension was added in 96-well plate. […] Following that, the plate was washed with sterile distilled water in order to decant the non-adherent cells, and media. The plate was then dried at 60°C for 1 hour, and 200 μL of 0.1% (w/v) crystal violet was added to stain biofilm for 20 minutes. The plate was washed again, air dried, and dispensed 30% (v/v) acetic acid in each well to dissolve the biofilm. The inhibition of biofilm formation was analyzed by measuring the absorbance at 595 nm using the microplate reader (Multiskan Sky, Thermo Scientific, USA). The percent inhibition of biofilm formation was calculated via the following formula: 100−ƛTreated−ƛBlank/ƛControl−ƛBlank×100 Whereƛ=absorbance

[3] = system: S. aureus biofilm; assay: Atomic force microscopy analysis of biofilm disruption; conditions: compared to control S. aureus cells, 24 hours
Experimental: The size and structure of disrupted biofilm was analyzed. Briefly, a pure single colony of S. aureus was inoculated in BHI broth and grown for 18–24 hours at 37°C. Following incubation, the cells were diluted in BHI broth, and density was adjusted to 1×10^7 before loading on a sterile silicon chip placed in 24-well plate, then silicon chips were treated with active compounds. The plate was then sealed, and placed in an incubator for 24 hours at 37°C. After incubation, the treated silicon chips were washed with autoclaved distilled water thrice, air dried, and the samples were analyzed by atomic force microscope (Agilent Technologies, USA).

[4] = system: biofilm cells of the S. aureus strain (ATCC 6538); assay: Biofilm analysis by fluorescence microscopy (SYTO-9/PI); conditions: SYTO-9/PI staining, S. aureus ATCC 6538, 24 hours
Experimental: Briefly, 1×10^7 cells were loaded in 96-well plate, and treated with active compounds. Plate was sealed, and incubated for 24 hours at 37°C. Following incubation, plate was washed with sterile distilled water, and cells were stained with […] SYTO-9 and 5 μM PI, for 30 minutes in dark at room temperature. After incubation, the wells were washed again, and air dried. Images were taken, and then visualized by Nikon Eclipse TE2000, USA [23]. Propidium Iodide (PI) staining indicates membrane integrity, as it can only pass through compromised membranes of non-viable cells, giving red fluorescence. On the contrary, Syto-9 can pass through all cells despite of their membrane integrity, and binds to DNA/RNA by emitting green fluorescence.

[5] = S. aureus ATCC 6538, replicate 1, read-out: % Inhibition 1
[6] = S. aureus ATCC 6538, replicate 2, read-out: % Inhibition 2
[7] = S. aureus ATCC 6538, replicate 3, read-out: % Inhibition 3
[8] = S. aureus ATCC 6538, read-out: Mean % Inhibition
[9] = 100 µg/mL, S. aureus ATCC 6538, replicate 1, read-out: % Inhibition 1
[10] = 100 µg/mL, S. aureus ATCC 6538, replicate 2, read-out: % Inhibition 2
[11] = 100 µg/mL, S. aureus ATCC 6538, replicate 3, read-out: % Inhibition 3
[12] = 100 µg/mL, S. aureus ATCC 6538, read-out: Mean % Inhibition
[13] = at 100 μg/mL, biofilm of S. aureus, 24 hours, read-out: Antibiofilm Activity (% Inhibition ± SEM)
[14] = at 100 μg/mL, biofilm of S. aureus, 24 hours

Compound | inhibition at 100 µg/mL [1] [%] | Antibacterial Activity (% Inhibition ± SEM) [1] | inhibition at 3.125 µg/mL [2, 5] [%] | inhibition at 3.125 µg/mL [2, 6] [%] | inhibition at 3.125 µg/mL [2, 7] [%] | inhibition at 3.125 µg/mL [2, 8] [%] | inhibition at 6.25 µg/mL [2, 5] [%] | inhibition at 6.25 µg/mL [2, 6] [%] | inhibition at 6.25 µg/mL [2, 7] [%] | inhibition at 6.25 µg/mL [2, 8] [%] | inhibition at 12.5 µg/mL [2, 5] [%] | inhibition at 12.5 µg/mL [2, 6] [%] | inhibition at 12.5 µg/mL [2, 7] [%] | inhibition at 12.5 µg/mL [2, 8] [%] | inhibition at 25 µg/mL [2, 5] [%] | inhibition at 25 µg/mL [2, 6] [%] | inhibition at 25 µg/mL [2, 7] [%] | inhibition at 25 µg/mL [2, 8] [%] | inhibition at 50 µg/mL [2, 5] [%] | inhibition at 50 µg/mL [2, 6] [%] | also measured
Cc1ccc2oc(=O)c(/C=N/Nc3nc(-c4cccc([N+](=O)[O-])c4)cs3)c(Cl)c2c1 [Compound 2, (E)-4-Chloro-6-methyl-3-((2-(4-(3-nitrophenyl)thiazol-2-yl)hydrazono)methyl)-2H-chromen-2-one] | 15 ± 4.53 | low antibacterial effect | 4.05 | 3.79 | 4.17 | 4 | 3.29 | 3.99 | 3.49 | 3.59 | 1.73 | 0.99 | 2.54 | 1.75 | 1.79 | 1.44 | 1.99 | 1.74 | 27 | 29.2 | inhibition at 50 µg/mL [2, 7]: 28.5%; inhibition at 50 µg/mL [2, 8]: 28.3%; inhibition at 100 µg/mL [2, 9]: 95%; inhibition at 100 µg/mL [2, 10]: 93.9%; inhibition at 100 µg/mL [2, 11]: 93.6%; inhibition at 100 µg/mL [2, 12]: 94.2%; inhibition at 100 µg/mL [2, 13]: 90 ± 3.24%; Antibiofilm Activity (% Inhibition ± SEM) [2, 14]: high potential to inhibit the biofilms; Biofilm disruption seen by AFM [3]: disrupt and degrade biofilm to varying degrees; Biofilm disruption seen by fluorescence microscopy [4]: Disruption on the surface of biofilm
Cc1ccc2oc(=O)c(/C=N/Nc3nc(-c4ccc(C#N)cc4)cs3)c(Cl)c2c1 [Compound 3, (E)-4-(2-(2-((4-Chloro-6-methyl-2-oxo-2H-chromen-3-yl)methylene)hydrazinyl)thiazol-4-yl)benzonitrile] | 27 ± 6.41 | low antibacterial effect | 12.7 | 11.7 | 13.9 | 12.8 | 22.7 | 21.1 | 22.5 | 22.1 | 26.9 | 29.2 | 27.4 | 27.8 | 55.9 | 57.8 | 56.6 | 56.8 | 74 | 76 | inhibition at 50 µg/mL [2, 7]: 77%; inhibition at 50 µg/mL [2, 8]: 75.6%; inhibition at 100 µg/mL [2, 9]: 93.2%; inhibition at 100 µg/mL [2, 10]: 90.2%; inhibition at 100 µg/mL [2, 11]: 93.1%; inhibition at 100 µg/mL [2, 12]: 92.2%; inhibition at 100 µg/mL [2, 13]: 91 ± 6.31%; Antibiofilm Activity (% Inhibition ± SEM) [2, 14]: high potential to inhibit the biofilms; Biofilm disruption seen by AFM [3]: disrupt and degrade biofilm to varying degrees; Biofilm disruption seen by fluorescence microscopy [4]: mild to extensive biofilm disruption and degradation
Cc1ccc2oc(=O)c(/C=N/Nc3nc(-c4ccc([N+](=O)[O-])cc4)cs3)c(Cl)c2c1 [Compound 4, (E)-4-Chloro-6-methyl-3-((2-(4-(4-nitrophenyl)thiazol-2-yl)hydrazono)methyl)-2H-chromen-2-one] | 21 ± 4.51 | low antibacterial effect | 2.92 | 1.79 | 3.04 | 2.58 | 7.04 | 8.05 | 9.02 | 8.04 | 6.69 | 5.79 | 5.68 | 6.05 | 29.1 | 30.1 | 28.1 | 29.1 | 66 | 67 | inhibition at 50 µg/mL [2, 7]: 66.1%; inhibition at 50 µg/mL [2, 8]: 66.4%; inhibition at 100 µg/mL [2, 9]: 86.8%; inhibition at 100 µg/mL [2, 10]: 84.3%; inhibition at 100 µg/mL [2, 11]: 86.6%; inhibition at 100 µg/mL [2, 12]: 85.9%; inhibition at 100 µg/mL [2, 13]: 90 ± 9.3%; Antibiofilm Activity (% Inhibition ± SEM) [2, 14]: high potential to inhibit the biofilms; Biofilm disruption seen by AFM [3]: disrupt and degrade biofilm to varying degrees; Biofilm disruption seen by fluorescence microscopy [4]: mild to extensive biofilm disruption and degradation
C/C(=N\Nc1nc(-c2ccc(Br)cc2)cs1)c1cc2ccccc2oc1=O [Compound 10, (E)-3-(1-(2-(4-(4-Bromophenyl)thiazol-2-yl)hydrazono)ethyl)-2H-chromen-2-one] | 18 ± 3.73 | low antibacterial effect | 1.98 | 1.44 | 1.54 | 1.65 | 5.34 | 4.99 | 5.53 | 5.29 | 7.56 | 7.29 | 7.21 | 7.35 | 2.34 | 2.21 | 2.09 | 2.21 | 39.5 | 39.8 | inhibition at 50 µg/mL [2, 7]: 39.8%; inhibition at 50 µg/mL [2, 8]: 39.7%; inhibition at 100 µg/mL [2, 9]: 69.4%; inhibition at 100 µg/mL [2, 10]: 69.5%; inhibition at 100 µg/mL [2, 11]: 68.9%; inhibition at 100 µg/mL [2, 12]: 69.3%; inhibition at 100 µg/mL [2, 13]: 69 ± 9.34%; Antibiofilm Activity (% Inhibition ± SEM) [2, 14]: high potential to inhibit the biofilms; Biofilm disruption seen by AFM [3]: Disrupted biofilm surfaces; Biofilm disruption seen by fluorescence microscopy [4]: Disruption on the surface of biofilm
